This is an account of results in US6596320B1, “Method for treating cancer having greater efficacy and reduced adverse effects” (BioNumerik Pharmaceuticals, Inc., priority 2002, dated 2003).

Data set [1] deals with MCF7/WT (breast cancer). Nature of the data set: Sequential treatment of MCF7/WT with CDDP followed by Taxol, % cell survival. In kind it is cell-based, human. As to conditions: 2 hour. As for the experimental part:
(§1) In vitro experiments were conducted to determine the efficacy of platinum/taxane combination therapy and to determine if the order of administration of the agents affected the cytotoxicity. The agents used were cisplatin (CDDP) and paclitaxel (Taxol®®), and the cell line used was MCF7/WT (breast cancer). The results of the experiments are shown below in Tables 1 and 2.

The subject of data set [2] is MCF7/WT (breast cancer). In words: Sequential treatment of MCF7/WT with Taxol followed by CDDP, % cell survival. In kind it is cell-based, human. The settings on record: 2 hour. How it is done: as §1
For data set [3] the following is noted: cited from earlier work.

Take `CC(=O)O[C@H]1C(=O)[C@@]2(C)[C@H]([C@H](OC(=O)c3ccccc3)[C@]3(O)C[C@H](OC(=O)[C@H](O)[C@@H](NC(=O)c4ccccc4)c4ccccc4)C(C)=C1C3(C)C)[C@]1(OC(C)=O)CO[C@@H]1C[C@@H]2O` [Taxol ®, paclitaxel]: the “% cell survival, Average” value is given as 71% in the data set with MCF7/WT (breast cancer) [1] (Taxol 27 nM alone), 45% in the data set with MCF7/WT (breast cancer) [1] (Taxol 45 nM alone), 88% in the data set on MCF7/WT (breast cancer) [2] (Taxol 27 nM alone) and 82% with MCF7/WT (breast cancer) [2] (Taxol 45 nM alone).
Consider `O=S(=O)([O-])CCSSCCS(=O)(=O)[O-].[Na+].[Na+]` [Dimesna, Disodium 2,2′-dithiobis ethane sulfonate], for which the “interference with cytotoxic effects of co-administered antineoplastic agent(s)” value in data set [3] (co-administration) is reported as “not to interfere with the cytotoxic effects”. The “effect on unwanted toxic effects of single agent cisplatin and single agent paclitaxel” value in data set [3] (human patients) is “reduce the unwanted toxic effects”.
With `[NH2][Pt]([NH2])([Cl])[Cl]` [CDDP, cisplatin], the “% cell survival, Average” value in the data set on MCF7/WT (breast cancer) [1] (CDDP 4.25 uM alone) was 71%; with MCF7/WT (breast cancer) [1] (CDDP 8.5 uM alone), 50%; with MCF7/WT (breast cancer) [2] (CDDP 4.25 uM alone), 73%; in the data set on MCF7/WT (breast cancer) [2] (CDDP 8.5 uM alone), 52%.
